{
  "source": "patent US4570013A",
  "about": "“Biphenylylalkanoic acid derivatives, methods of preparation and pharmaceutical compositions therefrom” (Dr. L. Zambeletti S.p.A., priority 1983, dated 1986)",
  "key": {"[1]": {"tested_on": "oedema induced in the rats' paw by intradermic injection of carrageenin", "assay": "carrageenin-induced paw oedema (method of Winter), antiinflammatory activity", "type": "in vivo", "conditions": "Rattus norvegicus, po, os, read-out: Antiinflammatory activity (oedema caused by carrageenin in rats) ED50"}, "[2]": {"tested_on": "writhings caused by 2-phenylparabenzoquinone in mice", "assay": "writhing test (method of Siegmund), 2-phenylparabenzoquinone, analgesic activity", "type": "in vivo, Swiss mice", "conditions": "for Contorsions % (change vs controls) / No. Contorsions: orally at ED50: biphenylylacetic acid 12, Ia 32 mg/kg", "description": "The analgesic activity has been studied according to the method described by Siegmund (E. Siegmund et al, Proc. Soc. Exptl. Biol. Med., 95, 729 (1957)), according to which the algogenic stimulus consists of the intraperitoneal injection of 2-phenylparabenzoquinone and the algesia manifests itself in repeated abdominal contractions with an extension of the rear limbs and contorsions of the body (\"writhing test\")."}, "[3]": {"tested_on": "Hyperthermia caused by brewer's yeast in rats", "assay": "brewer's yeast hyperthermia (method of C. Winter), antipyretic activity", "type": "in vivo", "description": "The antipyretic activity has been studied according to the method of C. Winter, Toxicol. and Appl. Pharmacol., 5, 247 (1963), in rats, by determining the ability of the substance to reduce the increase of body temperature caused by the subcutaneous administration of brewer's yeast."}, "in vivo": {"assay": "in vivo", "conditions": "rat, po"}},
  "data": [
    {"smiles": "O=C(O)Cc1ccc(-c2ccccc2)cc1", "note": "[reference compound]", "values": [
      {"measurement": "ED50", "setting": "[1]", "result": 10.9, "unit": "mg/kg"},
      {"measurement": "Contorsions % (change vs controls)", "setting": "[2]; 5 minutes", "result": -27, "unit": "%"},
      {"measurement": "No. Contorsions", "setting": "[2]; 5 minutes", "result": "33.4 ± 3.0"},
      {"measurement": "Contorsions % (change vs controls)", "setting": "[2]; 15 minutes", "result": -41, "unit": "%"},
      {"measurement": "No. Contorsions", "setting": "[2]; 15 minutes", "result": "31.0 ± 4.7"},
      {"measurement": "Contorsions % (change vs controls)", "setting": "[2]; 30 minutes", "result": -57, "unit": "%"},
      {"measurement": "No. Contorsions", "setting": "[2]; 30 minutes", "result": "21.3 ± 2.6"},
      {"measurement": "Contorsions % (change vs controls)", "setting": "[2]; 1 hour", "result": -49, "unit": "%"},
      {"measurement": "No. Contorsions", "setting": "[2]; 1 hour", "result": "25.6 ± 2.9"},
      {"measurement": "Contorsions % (change vs controls)", "setting": "[2]; 2 hours", "result": -42, "unit": "%"},
      {"measurement": "No. Contorsions", "setting": "[2]; 2 hours", "result": "25.1 ± 2.8"},
      {"measurement": "Contorsions % (change vs controls)", "setting": "[2]; 3 hours", "result": -47, "unit": "%"},
      {"measurement": "No. Contorsions", "setting": "[2]; 3 hours", "result": "26.0 ± 4.0"},
      {"measurement": "Contorsions % (change vs controls)", "setting": "[2]; 4 hours", "result": -28, "unit": "%"},
      {"measurement": "No. Contorsions", "setting": "[2]; 4 hours", "result": "34.9 ± 3.6"},
      {"measurement": "Contorsions % (change vs controls)", "setting": "[2]; 5 hours", "result": -1, "unit": "%"},
      {"measurement": "No. Contorsions", "setting": "[2]; 5 hours", "result": "45.0 ± 2.3"},
      {"measurement": "ED50", "setting": "[2]; Mus musculus, po, mice, orally, read-out: ED50, analgesic activity (writhing test)", "result": 12, "unit": "mg/kg"},
      {"measurement": "Temperature change Δt after administration of the substance", "setting": "[3]; 3 mg/kg os, 1 h", "result": -0.48, "unit": "°C"},
      {"measurement": "Temperature after administration of the substance, t", "setting": "[3]; 3 mg/kg os, 2 h", "result": "37.81±0.05", "unit": "°C"},
      {"measurement": "Temperature change Δt after administration of the substance", "setting": "[3]; 3 mg/kg os, 2 h", "result": -0.65, "unit": "°C"},
      {"measurement": "P/S, ratio of protected animals with respect to total screened animals", "setting": "[3]; 3 mg/kg os, 3 h", "result": "2/10"},
      {"measurement": "Temperature after administration of the substance, t", "setting": "[3]; 3 mg/kg os, 3 h", "result": "37.69±0.08", "unit": "°C"},
      {"measurement": "Temperature change Δt after administration of the substance", "setting": "[3]; 3 mg/kg os, 3 h", "result": -0.70, "unit": "°C"},
      {"measurement": "Temperature after administration of the substance, t", "setting": "[3]; 3 mg/kg os, 4 h", "result": "37.89±0.08", "unit": "°C"},
      {"measurement": "Temperature change Δt after administration of the substance", "setting": "[3]; 3 mg/kg os, 4 h", "result": -0.41, "unit": "°C"},
      {"measurement": "Temperature after administration of the substance, t", "setting": "[3]; 3 mg/kg os, 5 h", "result": "38.12±0.13", "unit": "°C"},
      {"measurement": "Temperature change Δt after administration of the substance", "setting": "[3]; 3 mg/kg os, 5 h", "result": -0.14, "unit": "°C"},
      {"measurement": "Temperature after administration of the substance, t", "setting": "[3]; 3 mg/kg os, 6 h", "result": "38.19±0.11", "unit": "°C"},
      {"measurement": "Temperature change Δt after administration of the substance", "setting": "[3]; 3 mg/kg os, 6 h", "result": -0.05, "unit": "°C"},
      {"measurement": "Temperature after administration of the substance, t", "setting": "[3]; 6 mg/kg os, 1 h", "result": "37.80±0.09", "unit": "°C"},
      {"measurement": "Temperature change Δt after administration of the substance", "setting": "[3]; 6 mg/kg os, 1 h", "result": -0.84, "unit": "°C"},
      {"measurement": "Temperature after administration of the substance, t", "setting": "[3]; 6 mg/kg os, 2 h", "result": "37.46±0.09", "unit": "°C"},
      {"measurement": "Temperature change Δt after administration of the substance", "setting": "[3]; 6 mg/kg os, 2 h", "result": -1.00, "unit": "°C"},
      {"measurement": "P/S, ratio of protected animals with respect to total screened animals", "setting": "[3]; 6 mg/kg os, 3 h", "result": "5/10"},
      {"measurement": "Temperature after administration of the substance, t", "setting": "[3]; 6 mg/kg os, 3 h", "result": "37.28±0.07", "unit": "°C"},
      {"measurement": "Temperature change Δt after administration of the substance", "setting": "[3]; 6 mg/kg os, 3 h", "result": -1.11, "unit": "°C"},
      {"measurement": "Temperature after administration of the substance, t", "setting": "[3]; 6 mg/kg os, 4 h", "result": "37.40±0.09", "unit": "°C"},
      {"measurement": "Temperature change Δt after administration of the substance", "setting": "[3]; 6 mg/kg os, 4 h", "result": -0.90, "unit": "°C"},
      {"measurement": "Temperature after administration of the substance, t", "setting": "[3]; 6 mg/kg os, 5 h", "result": "37.65±0.10", "unit": "°C"},
      {"measurement": "Temperature change Δt after administration of the substance", "setting": "[3]; 6 mg/kg os, 5 h", "result": -0.63, "unit": "°C"},
      {"measurement": "Temperature after administration of the substance, t", "setting": "[3]; 6 mg/kg os, 6 h", "result": "37.81±0.12", "unit": "°C"},
      {"measurement": "Temperature change Δt after administration of the substance", "setting": "[3]; 6 mg/kg os, 6 h", "result": -0.37, "unit": "°C"},
      {"measurement": "Temperature after administration of the substance, t", "setting": "[3]; 12 mg/kg os, 1 h", "result": "37.71±0.08", "unit": "°C"},
      {"measurement": "Temperature change Δt after administration of the substance", "setting": "[3]; 12 mg/kg os, 1 h", "result": -0.93, "unit": "°C"},
      {"measurement": "Temperature after administration of the substance, t", "setting": "[3]; 12 mg/kg os, 2 h", "result": "37.33±0.06", "unit": "°C"},
      {"measurement": "Temperature change Δt after administration of the substance", "setting": "[3]; 12 mg/kg os, 2 h", "result": -1.13, "unit": "°C"},
      {"measurement": "P/S, ratio of protected animals with respect to total screened animals", "setting": "[3]; 12 mg/kg os, 3 h", "result": "8/10"},
      {"measurement": "Temperature after administration of the substance, t", "setting": "[3]; 12 mg/kg os, 3 h", "result": "37.09±0.07", "unit": "°C"},
      {"measurement": "Temperature change Δt after administration of the substance", "setting": "[3]; 12 mg/kg os, 3 h", "result": -1.30, "unit": "°C"},
      {"measurement": "Temperature after administration of the substance, t", "setting": "[3]; 12 mg/kg os, 4 h", "result": "37.18±0.07", "unit": "°C"},
      {"measurement": "Temperature change Δt after administration of the substance", "setting": "[3]; 12 mg/kg os, 4 h", "result": -1.12, "unit": "°C"},
      {"measurement": "Temperature after administration of the substance, t", "setting": "[3]; 12 mg/kg os, 5 h", "result": "37.43±0.08", "unit": "°C"},
      {"measurement": "Temperature change Δt after administration of the substance", "setting": "[3]; 12 mg/kg os, 5 h", "result": -0.93, "unit": "°C"},
      {"measurement": "Temperature after administration of the substance, t", "setting": "[3]; 12 mg/kg os, 6 h", "result": 37.58, "unit": "°C"},
      {"measurement": "Temperature change Δt after administration of the substance", "setting": "[3]; 12 mg/kg os, 6 h", "result": -0.66, "unit": "°C"},
      {"measurement": "ED50", "setting": "[3]; Rattus norvegicus, po, rats, os, read-out: Antipyretic activity (temperature increase by brewer's yeast, in rats) ED50", "result": 6, "unit": "mg/kg"},
      {"measurement": "TD50", "setting": "in vivo", "result": 16.5, "unit": "mg/kg"}
    ]}
  ]
}
